This is an account of results in US10844049B2, “GLP-1R agonists and uses thereof” (QILU REGOR THERAPEUTICS INC., priority 2018, dated 2020).

The target in one data set is GLP1R (Homo sapiens, UniProt P43220). Kind of data set: β-Arrestin-mediated GLP1R internalization assay (PathHunter engineered U2OS cells). It counts as cell-based. More on the design: host or cells: PathHunter engineered U2OS cells. Particulars: averaged Bmax, percentage of control GLP-1 (7-37), highest concentration tested. From the text:
A similar assay can also be used to assess the extent of signal attenuation due to GLP-1R internalization (the β-Arrestin Internalization Assay). In this assay, activated GLP1R Internalization cells were engineered to co-express an untagged GLP1R, Enzyme Acceptor (EA) tagged β-Arrestin, and a ProLink™ (PK) tag localized to the endosomes. Activation of the GLP1R induces β-Arrestin recruitment, which leads to internalization of the Receptor/Arrestin-EA complex in PK-tagged endosomes. This forces complementation of the two β-galactosidase enzyme fragments (EA and PK) to form a functional enzyme that hydrolyzes substrate to generate a chemiluminescent signal. These cells have been modified to prevent long term propagation and expansion using a proprietary compound that has no apparent effect on assay performance.
Specifically, PathHunter engineered U2OS cells from the assay kit (Cat #93-0724E3CP0L) were plated at a density of 2000 cells/20 μL/well in a 384-well white/clear bottom plates (Greiner Cat #781098). Frozen cells were quickly thawed and 10 mL of cell plating medium (provided by the kit) was added to thawed cells. Cells were stored in a 37° C. incubator and kept for approximately 48 hours until ready for the assay.
Reference and test compounds were dissolved in 100% DMSO. 5× concentration of an agonist was prepared in serum free DMEM (Thermo Cat #11965). 5 μL of this solution was added to 20 μL cell medium in assay plate for a final top concentration of 10 μM. Plates were incubated at 37° C. for 180 min.
Following 180 min incubation, detection reagents were made up by combining 1 part Galacton Star Substrate with 5 parts Emerald II™ Solution, and 19 parts of PathHunter Cell Assay Buffer, respectively. 12.5 μL detection reagent was added to each well. The plates were then incubated at room temperature for 60 min. Plates were then read on Envision for 0.1 sec/well.
EC50 determinations were made from agonist dose-response curves analyzed with a curve fitting program using a 4-parameter logistic dose response equation.

A short description of data set [1]: Monkey oral pharmacokinetic (PK) study, non-naïve Cynomolgus male monkeys. Format: in vivo. The note with it: for plasma concentration-time profile: PO, over about 24 hours after oral dosing; for Tmax / bioavailability: male, cynomolgus monkey, plasma; for Tmax / bioavailability / AUC0-24 h / Cmax: oral. The protocol: (§1) Appropriate volumes of vehicles (e.g., 2% Tween 80 (v:v) and 0.5% MC (w:v) in saline or 0.5% MC (w:v) in water were then added into the mortar containing the ground compounds, and the mixture was then grinded with a pestle until a homogeneous paste was formed. Additional appropriate volumes of vehicles were added into the mortar containing each compound, and the mixture was grinded further with the pestle until a homogeneous suspension was obtained.
(§2) The rest of the vehicle was added to make up the final dosing volume of about 1 mg/mL or 2 mg/mL (i.e., final dosing volume of about 5 mL/kg), and the homogenous suspension was continuously stirred prior to and during the dosing.
(§3) Non-naïve Cynomolgus male monkeys (n=3/test article; sourced from Hainan Jingang Biotech Co., Ltd., Nayang Xmtan, Fucheng Town, Qiongshan District, Haikou City, Hainan Province, China); or non-naïve aged, obese, and diabetic male Macaca fascicularis monkeys (n=3/test article, Source: Kunming Biomed International Colony) were used in pre-clinical in vivo studies. All non-naïve Cynomolgus male monkeys were approximately 3 to 5 years old, weighed about 2.5-5 kg, and were within ±20% of the average body weight. All non-naïve aged, obese, and diabetic male Macaca fascicularis monkeys were approximately 12 to 20 years old, weighed about >8-12 kg.
(§4) All animals were fasted overnight before dosing, and the food were supplied approximately 4 hours post dose (with free access to water all the time).
(§5) Animals were restrained at designated time points for blood sampling. Approximately 500 μL of blood samples was taken via cephalic or saphenous vein into EDTA-K2 tubes. Blood samples were put on wet ice before centrifugation.
(§6) For oral administration (PO) of either Dose 1 or Dose 2: blood samples were collected at pre-dose, and at 15 min, 30 min, 1 hr, 2 hr, 4 hr, (6 hr for compounds 19 and 28 with cynomolgus monkeys only), 8 hr, 12 hr, and 24 hr post dose (i.e., 9 or 10 total time points for each compound at each dose).
(§7) The blood samples were centrifuged at approximately 2,000-4,000 rpm for about 10-15 minutes at 2-8′C, and each resulting plasma portion was then transferred into an individual tube.
(§8) LC-MS/MS methods were developed, and bioanalysis for the test articles in monkey plasma was performed according to the developed LC-MS/MS methods.
Undiluted plasma samples: An aliquot of 20-50 μL plasma sample was mixed with 200 μL of ACN or MeOH containing one of the internal standards (IS, e.g., Diclofenac or Terfenadine). The mixture was then vortexed for about 1-5 min, and centrifuged at about 4,000-5,800 rpm for about 10-15 min. An aliquot of 1 μL supernatant was used for LC-MS/MS analysis.
(§9) Pharmacokinetics parameters, including area under the curve (AUC0-t), maximum plasma concentration (Cmax), time to reach maximum plasma concentration (Tmax), oral bioavailability (F %), etc., were calculated using Phoenix software (Version 6.4) and non-compartment model.

The nature of data set [2]: Monkey oral pharmacokinetic (PK) study, aged, obese, and diabetic male monkeys. It counts as in vivo. The note with it: Dose 2, non-naïve aged, obese, and diabetic male Macaca fascicularis monkeys. The protocol:
as §1, §2, §3, §4, §5, §6, §7, §8
Undiluted plasma samples: An aliquot of 20-50 μL plasma sample was mixed with 200 μL of ACN or MeOH containing one of the internal standards (IS, e.g., Diclofenac or Terfenadine). […]
as §9

GLP1R, sequence (P43220 24-463): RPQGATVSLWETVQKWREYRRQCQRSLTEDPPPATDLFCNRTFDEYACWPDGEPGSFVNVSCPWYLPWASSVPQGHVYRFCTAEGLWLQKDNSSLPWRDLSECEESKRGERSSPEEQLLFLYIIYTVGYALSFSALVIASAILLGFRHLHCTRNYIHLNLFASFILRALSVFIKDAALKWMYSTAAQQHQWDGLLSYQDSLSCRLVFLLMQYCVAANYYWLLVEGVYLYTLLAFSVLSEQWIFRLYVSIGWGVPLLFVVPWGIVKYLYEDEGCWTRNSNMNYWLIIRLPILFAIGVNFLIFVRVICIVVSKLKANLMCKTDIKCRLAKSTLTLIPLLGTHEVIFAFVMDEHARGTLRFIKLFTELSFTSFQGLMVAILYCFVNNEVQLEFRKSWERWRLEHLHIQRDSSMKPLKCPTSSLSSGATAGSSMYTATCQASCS

For `O=C(O)c1ccc2nc(CN3CC=C(c4ccc(F)c(OCc5ccc(Cl)cc5F)c4)CC3)n(C[C@@H]3CCO3)c2c1` [Compound 29, (S)-2-((4-(3-((4-chloro-2-fluorobenzyl)oxy)-4-fluorophenyl)-3,6-dihydropyridin-1(2H)-yl)methyl)-1-(oxetan-2-ylmethyl)-1 h-benzo[d]imidazole-6-carboxylic acid], the “Bmax (POC)” value at GLP1R amounted to 25.9 ± 1.24 POC. Further, the plasma concentration-time profile entry in data set [1] was “sustained at a more constant level”. Besides, in data set [1] (Dose 2), the time of peak concentration (Tmax) was found to be 1.2 h, the bioavailability was found to be 41%, the AUC0-24 h amounted to 21800 Arbitrary units and the Cmax was 3380 Arbitrary unit.
With `N#Cc1ccc(COc2cccc(C3=CCN(Cc4nc5ccc(C(=O)O)cc5n4C[C@@H]4CCO4)CC3)n2)c(F)c1` [Compound 19, (S)-2-((4-(6-(4-cyano-2-fluorobenzyloxy)pyridin-2-yl)-5,6-dihydropyridin-1(2H)-yl)methyl)-1-(oxetan-2-ylmethyl)-1 h-benzo[d]imidazole-6-carboxylic add], in data set [2], the AUC0-24 h was found to be 2470 Arbitrary units and the Cmax came out at 413 Arbitrary unit. For the same compound, in data set [2] (cynomolgus monkey, plasma), the Tmax came out at 8.8 h and the bioavailability was 15.5%. Further, on GLP1R, the “Bmax (POC)” value amounted to 20.1 POC. Besides, the plasma concentration-time profile entry in data set [1] is on record as “sustained at a more constant level”. For the same compound, in data set [1] (Dose 1), the time of peak concentration (Tmax) is 2.7 h, the bioavailability turned out to be 10.8%, the AUC0-24 h is given as 1130 Arbitrary units and the Cmax was 125 Arbitrary unit.
`O=C(O)c1ccc2nc(CN3CC=C(c4cccc(OCc5ccc(Cl)cc5F)c4)CC3)n(C[C@@H]3CCO3)c2c1` [Compound 28, (S)-2-((4-(3-((4-chloro-2-fluorobenzyl)oxy)phenyl)-3,6-dihydropyridin-1(2H)-yl)methyl)-1-(oxetan-2-ylmethyl)-1 h-benzo[d]imidazole-6-carboxylic add]: the “Bmax (POC)” value on GLP1R was 17.6 ± 6.62 POC. Besides, the plasma concentration-time profile entry in data set [1] was “sustained at a more constant level”. Also, in data set [1] (Dose 1), the time to peak (Tmax) was determined as 3.3 h, the bioavailability is 56.1%, the AUC0-24 h was found to be 24900 Arbitrary units and the Cmax came out at 3910 Arbitrary unit.
